One assay has as its system Acinetobacter baumanii. The assay is described as follows: Antimicrobial activity (MIC), serial dilution. The format is cell-based. How it is done: (§1) The evaluation of antimicrobial efficacy was conducted through a serial dilution method to determine the minimum inhibitory concentrations (MICs) of isolated compounds against various Gram-positive bacteria (Bacillus subtilis (B. subtilis), Mycobacterium smegmatis (M. smegmatis), and Staphylococcus aureus), Gram-negative bacteria (Acinetobacter baumannii (A. baumannii), Chromobacterium violaceum, Escherichia coli, and Pseudomonas aeruginosa (P. aeruginosa)), and five fungal species (Candida albicans, Mucor hiemalis, Rhodotorula glutinis, Schizosaccharomyces pombe, and Wickerhamomyces anomalus), utilizing established methodologies.[16],[20],[23],[24] Methanol served as the negative control with a volume of 20 μL, while the choice of positive controls was tailored to the specific organism under investigation. For bacterial strains, oxytetracycline, ciprofloxacin, kanamycin, and gentamicin were employed as references for B. subtilis, A. baumannii, M. smegmatis, and P. aeruginosa, respectively; nystatin was the standard for all fungi. The cytotoxicity of compounds was assessed on L929 mouse fibroblast cells and KB3.1 human endocervical adenocarcinoma cells using an MTT assay. Epothilone B acted as the positive control in these experiments. Additionally, the nematicidal potential was evaluated using Caenorhabditis elegans in a 48-well flat-bottom plate, with compounds tested at concentrations of 100, 50, and 10 μg mL^–1. Samples were dissolved in methanol and added to the wells and then dried using a nitrogen stream. Subsequently, 300 μL of a suspension containing 1,000 nematodes/mL was added to the samples and incubated for 18 h at 23 °C and 150 rpm. Ivermectin, at a concentration of 1 μg mL^–1, served as the positive control, and methanol was used as the negative control. This assay was executed according to the procedures outlined by Phutthacharoen et al.[23]

A further assay relates to Pseudomonas aeruginosa. The assay is described as follows: Antimicrobial activity (MIC), serial dilution. In kind it is cell-based. How it is done:
as §1, with “The biological activity of isolated compounds (1, 2, 4, and 5) was assessed against different fungi, bacteria, cell lines, Caenorhabditis elegans, and Chikungunya virus. The evaluation” for “The evaluation”

For the next assay, the system named is Escherichia coli. The assay is described as follows: Antimicrobial activity (MIC), serial dilution. In kind it is cell-based. How it is done: as §1, with “The biological activity of isolated compounds (1, 2, 4, and 5) was assessed against different fungi, bacteria, cell lines, Caenorhabditis elegans, and Chikungunya virus. The evaluation” for “The evaluation”

Another assay has as its system Staphylococcus aureus. The assay is described as follows: Antimicrobial activity (MIC), serial dilution. The format is cell-based. How it is done: as §1, with “The biological activity of isolated compounds (1, 2, 4, and 5) was assessed against different fungi, bacteria, cell lines, Caenorhabditis elegans, and Chikungunya virus. The evaluation” for “The evaluation”
Assay [1] deals with Chromobacterium violaceum. The assay is described as follows: Antimicrobial activity (MIC), serial dilution. In kind it is cell-based. The method, then: as §1, with “The biological activity of isolated compounds (1, 2, 4, and 5) was assessed against different fungi, bacteria, cell lines, Caenorhabditis elegans, and Chikungunya virus. The evaluation” for “The evaluation”
In the next assay the test system is Bacillus subtilis. The assay is described as follows: Antimicrobial activity (MIC), serial dilution. In kind it is cell-based. How it is done:
as §1

The subject of assay [2] is KB3.1 human endocervical adenocarcinoma cells. The assay is described as follows: Cytotoxicity, MTT assay. The format is cell-based. Details: key: -: No effect on cell lines. The settings on record: Human endocervical adenocarcinoma (KB3.1). How it is done: as §1
(In general: Tetrazolium assays rely on reduction of a dye to a coloured formazan, in cell work by metabolically active cells.)

For assay [3], the system named is L929 mouse fibroblast cells. The assay is described as follows: Cytotoxicity, MTT assay. The format is cell-based. Details: key: -: No effect on cell lines. How it is done:
as §1

Another assay has as its system Caenorhabditis elegans. The assay is described as follows: Nematicidal activity. The format is in vivo. The settings on record: 23 °C, 150 rpm. How it is done: as §1
In another assay the test system is Pichia anomala. The assay is described as follows: Antimicrobial activity (MIC), serial dilution. In kind it is cell-based. The method, then: as §1, with “The biological activity of isolated compounds (1, 2, 4, and 5) was assessed against different fungi, bacteria, cell lines, Caenorhabditis elegans, and Chikungunya virus. The evaluation” for “The evaluation”
Another assay concerns Mycobacterium smegmatis. The assay is described as follows: Antimicrobial activity (MIC), serial dilution. The format is cell-based. The method, then:
as §1, with “The biological activity of isolated compounds (1, 2, 4, and 5) was assessed against different fungi, bacteria, cell lines, Caenorhabditis elegans, and Chikungunya virus. The evaluation” for “The evaluation”

The subject of the next assay is Candida albicans. The assay is described as follows: Antimicrobial activity (MIC), serial dilution. The format is cell-based. How it is done: as §1, with “The biological activity of isolated compounds (1, 2, 4, and 5) was assessed against different fungi, bacteria, cell lines, Caenorhabditis elegans, and Chikungunya virus. The evaluation” for “The evaluation”
A further assay concerns Mucor hiemails. The assay is described as follows: Antimicrobial activity (MIC), serial dilution. The format is cell-based. The method, then: as §1, with “The biological activity of isolated compounds (1, 2, 4, and 5) was assessed against different fungi, bacteria, cell lines, Caenorhabditis elegans, and Chikungunya virus. The evaluation” for “The evaluation”
Assay [4] deals with Schizosaccharomyces pombe. The assay is described as follows: Antimicrobial activity (MIC), serial dilution. In kind it is cell-based. How it is done: as §1, with “The biological activity of isolated compounds (1, 2, 4, and 5) was assessed against different fungi, bacteria, cell lines, Caenorhabditis elegans, and Chikungunya virus. The evaluation” for “The evaluation”
The subject of another assay is Rhodotorula glutinis. The assay is described as follows: Antimicrobial activity (MIC), serial dilution. In kind it is cell-based. How it is done: as §1, with “The biological activity of isolated compounds (1, 2, 4, and 5) was assessed against different fungi, bacteria, cell lines, Caenorhabditis elegans, and Chikungunya virus. The evaluation” for “The evaluation”
Setting [5] is: read-out: MIC, positive control.
The mark [6] stands for this setting: C. elegans N2, 10 µg mL-1, 18 h, < 0: less active than the corresponding negative control.
Setting [7] is: C. elegans N2, 50 µg mL-1, 18 h, < 0: less active than the corresponding negative control.
Where [8] appears, read: C. elegans N2, 100 µg mL-1, 18 h, < 0: less active than the corresponding negative control.

≈ marks a conversion by molar mass, not a printed value. Where two headings read alike, the source gives them in different places. Some results are limits rather than exact numbers.

The text below walks through data of publication PMC11097168, “Laburnicotides A–F: Acyclic N-Acetyl Oligopeptides from the Nematode-Cyst-Associated Fungus Laburnicola nematophila” (ACS Omega, 2024).

Broadly, the MIC is the lowest concentration found to suppress growth. `O=C(O)c1cn(C2CC2)c2cc(N3CCNCC3)c(F)cc2c1=O` [Ciprofloxacin, reference compound]: in the assay with Acinetobacter baumanii (Acinetobacter baumannii, read-out: MIC, positive control), the minimal inhibitory concentration (MIC) turned out to be 0.52 µg/mL (≈ 1.57 µM).

As to `CNC(C)C1CCC(N)C(OC2C(N)CC(N)C(OC3OCC(C)(O)C(NC)C3O)C2O)O1` (stereo not drawn) [Gentamycin, reference compound], the minimum inhibitory concentration (MIC) with Pseudomonas aeruginosa (setting [5]) was found to be 0.21 µg/mL (≈ 0.44 µM); in the assay with Escherichia coli (setting [5]) it was 0.42 µg/mL (≈ 0.879 µM); in the assay with Staphylococcus aureus (setting [5]), 0.21 µg/mL (≈ 0.44 µM); in assay [1] (setting [5]), 1.7 µg/mL (≈ 3.56 µM).

With `CN(C)[C@@H]1C(O)=C(C(N)=O)C(=O)[C@@]2(O)C(O)=C3C(=O)c4c(O)cccc4[C@@](C)(O)[C@H]3[C@H](O)[C@@H]12` [Oxytetracycline, reference compound], the MIC in the assay with Bacillus subtilis (setting [5]) was determined as 16.6 µg/mL (≈ 36.1 µM).

Take “Ac-D-Trp-D-Ala^1-D-Ala^2-L-Phe [Compound 4]”: the “Cytotoxicity IC50” value in assay [2] and in assay [3] was “-” each time. In addition, the “Corrected Mortality (%)” value is reported as 0.7 ± 2.0% in the assay with Caenorhabditis elegans (setting [6]), 0.1 ± 2.2% in the assay with Caenorhabditis elegans (setting [7]) and under 0% with Caenorhabditis elegans (setting [8]). In addition, the minimal inhibitory concentration (MIC) result against Acinetobacter baumanii, in the assay with Bacillus subtilis, against Pichia anomala, against Pseudomonas aeruginosa, in the assay on Mycobacterium smegmatis and with Candida albicans was “- (No inhibition up to 67 µg/mL)” each time. Also, the minimum inhibitory concentration (MIC) entry (with Escherichia coli; in the assay on Mucor hiemails; with Staphylococcus aureus; in assay [4]; against Rhodotorula glutinis; in assay [1]) was “- (No inhibition up to 67 µg/mL)” each time.

As for Ac-D-Trp-D-Leu-D-Ala [Compound 5], the “Cytotoxicity IC50” value in [2] and in [3] was “-” throughout. Further, the “Corrected Mortality (%)” value with Caenorhabditis elegans (setting [6]) is on record as under 0%; in the assay with Caenorhabditis elegans (setting [7]), 0.5 ± 1.1%; in the assay on Caenorhabditis elegans (setting [8]) it was under 0%. Moreover, the MIC result with Acinetobacter baumanii, against Bacillus subtilis, against Pichia anomala, against Pseudomonas aeruginosa, in the assay on Mycobacterium smegmatis and against Candida albicans was “- (No inhibition up to 67 µg/mL)” throughout. Besides, the MIC entry (against Escherichia coli; in the assay on Mucor hiemails; against Staphylococcus aureus; in [4]; against Rhodotorula glutinis; in assay [1]) was “- (No inhibition up to 67 µg/mL)” throughout.

As for Ac-D-Trp-D-Leu-D-Ala-L-Phe [Compound 2], the “Cytotoxicity IC50” value in assay [2] and in assay [3] was “-” in each case. Besides, the “Corrected Mortality (%)” value in the assay with Caenorhabditis elegans (setting [6]), with Caenorhabditis elegans (setting [7]) and in the assay on Caenorhabditis elegans (setting [8]) was under 0% each time. Besides, the minimum inhibitory concentration (MIC) result against Acinetobacter baumanii, in the assay on Bacillus subtilis, in the assay on Pichia anomala, against Pseudomonas aeruginosa, against Mycobacterium smegmatis and with Candida albicans was “- (No inhibition up to 67 µg/mL)” in each case. Further, the minimal inhibitory concentration (MIC) result (with Escherichia coli; with Mucor hiemails; with Staphylococcus aureus; in [4]; with Rhodotorula glutinis; in [1]) was “- (No inhibition up to 67 µg/mL)” each time.

Take “Ac-D-Trp-D-Leu^1-D-Leu^2-L-Phe [Compound 1]”: the “Cytotoxicity IC50” value in [2] and in [3] was “-” each time. Also, the “Corrected Mortality (%)” value in the assay with Caenorhabditis elegans (setting [6]), in the assay on Caenorhabditis elegans (setting [7]) and in the assay with Caenorhabditis elegans (setting [8]) was under 0% each time. Moreover, the MIC entry against Acinetobacter baumanii, with Bacillus subtilis, in the assay with Pichia anomala, in the assay on Pseudomonas aeruginosa, with Mycobacterium smegmatis and in the assay on Candida albicans was “- (No inhibition up to 67 µg/mL)” in each case. In addition, the MIC result (in the assay on Escherichia coli; in the assay on Mucor hiemails; against Staphylococcus aureus; in [4]; in the assay with Rhodotorula glutinis; in assay [1]) was “- (No inhibition up to 67 µg/mL)” throughout.

Turning to Ivermectin [reference compound], the “Corrected Mortality (%)” value in the assay on Caenorhabditis elegans (C. elegans N2, 1 µg mL-1, 18 h) amounted to 96.2 ± 2.7%.
